Results from patent US6846921B2, “Chimeric antisense oligonucleotides and cell transfecting formulations thereof” (Chiron Corporation, priority 1999, dated 2005).
{5'-OMe-dT} = O-methyl thymidine blocking nucleotide (W), phosphodiester-linked; {3'-3'N} = to-3' linked nucleotide blocking group (Z), phosphodiester-linked; d = 2'-deoxy (DNA); m = 2'-O-methyl

Key:
AKT1 mRNA [1] = test: AKT1 mRNA knockout after transfection of chimeric antisense oligonucleotide; format: cell-based, human; details: HT1080 cells
Procedure: (§1) With the exception of the mTyr oligo (SEQ ID NO: 17-18), which was transfected into B16 melanoma cells, all oligos shown in Table 1 were transfected into HT1080 cells, using “Lipitoid 1” (see below) for transfection, and incubated for 24 hours. The table gives the approximate level of mRNA knockout observed in each case.
The same oligos were also delivered by commercial lipids (Effectene™) and peptoids ((NaeNmpeNmpe)3).
(§2) For each transfection mixture, a carrier molecule, preferably a lipitoid or cholesteroid, was prepared to a working concentration of 0.5 mM in water, sonicated to yield a uniform solution, and filtered through a 0.45 μm PVDF membrane. […]
(§3) The level of target mRNA was quantitated using the Roche LightCycler™ real-time PCR machine. […]
(§4) An amplification mixture was prepared by mixing in the following order: 1×PCR buffer II, 3 mM MgCl2, 140 μM each dNTP, 0.175 pmol each oligo, 1:50,000 dil of SYBR® Green, 0.25 mg/ml BSA, 1 unit Taq polymerase, and H2O to 20 μl. (PCR buffer II is available in 10×concentration from Perkin-Elmer (Norwalk, Conn.). In 1×concentration it contains 10 mM Tris pH 8.3 and 50 mM KCl. SYBR® Green (Molecular Probes, Eugene, Oreg.) is a dye which fluoresces when bound to double stranded DNA. As double stranded PCR product is produced during amplification, the fluorescence from SYBR® Green increases.) […]

CK1E mRNA = CK1E mRNA knockout after transfection of chimeric antisense oligonucleotide; format: cell-based, human; details: HT1080 cells, Lipitoid 1 for transfection, incubated 24 hours, approximate level
Procedure: as §1
as §2, with “membrane. The antisense oligonucleotide was prepared to a working concentration of 100 μM in sterile Millipore water.” for “membrane.”
as §3, §4

CHK1 mRNA = CHK1 mRNA knockout after transfection of chimeric antisense oligonucleotide; format: cell-based, human
Procedure: Antisense chimeric oligonucleotides based on the formula above, having sequences directed against AKT1 (SEQ ID NO: 1) or AKT2 (SEQ ID NO: 2), were prepared as described in Example 1. The oligonucleotides also included a 5′-terminal 5′-O-methyl thymidine, as indicated by the formula above. In these oligonucleotides, X^1 and X^2 were seven-base blocks of 2′-O-methyl PO RNA, Y is PS DNA, Z was a 3′-to-3′ linked nucleotide, and W was a 5′-O-methyl thymidine. Both Z and W were linked to the respective X blocks via phosphodiester linkages. […] FIGS. 5 and 6 show levels of endogenous AKT1 mRNA in colon cancer cells and HT1080 cells, respectively, transfected with anti-AKT1 chimeric oligonucleotides (SEQ ID NO: 1). […]
as §3, §4

chk1 kinase = chk1 kinase activity after antisense transfection; format: cell-based, human; details: hCHK1 antisense, transfected cells
[2] = system: G2 cell cycle checkpoint control; test: chk1 function (G2 cell cycle checkpoint control) after antisense transfection; format: cell-based, human; details: hCHK1 antisense, transfected cells
Lovo colon cancer cells = test: 4 day cell proliferation assay after transfection, Lovo; format: cell-based; details: 4 day assay, 50-300 nM reverse control PDK1 oligo, compared with Lipitoids 1 and 2
Procedure: (§5) (Again, reverse control PDK1 chimeric oligonucleotides, expected to be non-active, were used.). […] This effect is not limited to this cell type, and was also observed in proliferation assays of Km12L4 colon cancer cells (FIG. 6) and Colo320DM colon cancer cells (FIG. 7).
(§6) Cells were seeded into 96 well plates at a density of 5000 cells per well. For a 4 day proliferation assay, 5 independent 96 well plates were prepared, one for each day. After overnight incubation, cells were transfected using the procedure described above. On each day of the proliferation assay, all medium was removed from one plate and frozen at −70° C. On day four, all plates were developed with the Quantos™ assay kit (Stratagene, La Jolla, Calif.) which determines the amount of DNA, and thus the number of cells, in each well.

[3] = system: Colo320DM colon cancer cells; test: Cell proliferation assay after transfection, Colo320DM; format: cell-based; details: compared with Lipitoids 1 and 2
Procedure: as §5, §6

ILK mRNA = ILK mRNA knockout after transfection of chimeric antisense oligonucleotide; format: cell-based, human; details: HT1080 cells, Lipitoid 1 for transfection, incubated 24 hours, approximate level
Procedure: as §1
as §2, with “membrane. The antisense oligonucleotide was prepared to a working concentration of 100 μM in sterile Millipore water.” for “membrane.”
as §3, §4

KRAS mRNA = KRAS mRNA knockout after transfection of chimeric antisense oligonucleotide; format: cell-based, human; details: HT1080 cells, Lipitoid 1 for transfection, incubated 24 hours, approximate level
Procedure: as §1
as §2, with “membrane. The antisense oligonucleotide was prepared to a working concentration of 100 μM in sterile Millipore water.” for “membrane.”
as §3, §4

IGFR1 mRNA = IGFR1 mRNA knockout after transfection of chimeric antisense oligonucleotide; format: cell-based, human; details: HT1080 cells, Lipitoid 1 for transfection, incubated 24 hours, approximate level
Procedure: as §1
as §2, with “membrane. The antisense oligonucleotide was prepared to a working concentration of 100 μM in sterile Millipore water.” for “membrane.”
as §3, §4

E1AF mRNA = E1AF mRNA knockout after transfection of chimeric antisense oligonucleotide; format: cell-based, human; details: HT1080 cells, Lipitoid 1 for transfection, incubated 24 hours, approximate level
Procedure: as §1
as §2, with “membrane. The antisense oligonucleotide was prepared to a working concentration of 100 μM in sterile Millipore water.” for “membrane.”
as §3, §4

[4] = system: human fibrosarcoma (HT1080) cells; test: Delivery of FITC-labeled chimeric oligonucleotides, fluorescence analysis; format: cell-based
Source text: One method of delivery involves the use of transfection agents known as “lipitoids” and “cholesteroids”, described, for example, in co-owned PCT publications WO 98/06437 and WO 99/08711 (Zuckermann et al.), based on U.S. Ser. Nos. 60/023,867, 60/054,743, and 09/132,808, which are hereby incorporated by reference. These lipid-cationic peptoid conjugates are shown in these references to be effective reagents for the delivery of plasmid DNA to cells in vitro. It is shown herein that such compounds efficiently deliver oligonucleotides into a variety of primary and tumor cell lines. The efficiency of delivery was assessed by fluorescence analysis of FITC-labeled oligonucleotides, or by monitoring mRNA levels after transfection of chimeric antisense oligonucleotides, as described further below.
The extent of delivery of FITC-labeled chimeric oligonucleotides into human fibrosarcoma (HT1080) cells was assessed via fluorescence analysis. (All oligonucleotides used in the subsequent studies were chimeric oligonucleotides as described for the studies represented in Table 1.) The sequence of the oligonucleotides was the reverse control of PDK1 (SEQ ID NO: 25, the reverse of SEQ ID NO: 23) so that the effect of the oligonucleotides on the cells would be minimal. The oligonucleotides were transfected via complexation with (a) a commercially available transfection agent, Effectene™, (b) the peptoid (NaeNmpeNmpe)3 (peptoid 1), (c) Lipitoid 1, in a 1:4 charge ratio of oligo to lipitoid, and (d) Lipitoid 1, in a 1:3 charge ratio.

AKT1 mRNA [5] = test: AKT1 mRNA knockout in colon cancer cell line (Lovo) with different carriers; format: cell-based; details: Lovo cells; delivery of chimeric anti-AKT1 oligo
Procedure: For each transfection mixture, a carrier molecule, preferably a lipitoid or cholesteroid, was prepared to a working concentration of 0.5 mM in water, sonicated to yield a uniform solution, and filtered through a 0.45 μm PVDF membrane. The antisense oligonucleotide was prepared to a working concentration of 100 μM in sterile Millipore water.
The oligonucleotide was diluted in OptiMEM™ (Gibco/BRL), in a microfuge tube, to 2 μM, or approximately 20 μg oligo/ml of OptiMEM™. In a separate microfuge tube, lipitoid or cholesteroid, typically in the amount of about 1.5-2 nmol lipitoid/μg antisense oligonucleotide, was diluted into the same volume of OptiMEMTm used to dilute the oligonucleotide. The diluted antisense oligonucleotide was immediately added to the diluted lipitoid and mixed by pipetting up and down.
Cells were plated on tissue culture dishes one day in advance of transfection, in growth media with serum, to yield a density at transfection of 60-90%. The oligonucleotide/lipitoid mixture was added to the cells, immediately after mixing, to a final concentration of 100-300 nM antisense oligonucleotide. Cells were incubated with the transfection mixture at 37° C., 5% CO2 for 4-24 hours. After incubation, the transfection mixture was removed and replaced with normal growth media with serum.
as §3

[6] = oligo SEQ ID NO: 25, in comparison to Effectene

“CCATAGTGAGGTTGCATCTGGTGCC (chimeric modifications, further chemistry not given here) [SEQ ID NO: 1, chimeric antisense oligonucleotide directed against AKT1]” was tested, and the “reduction in endogenous AKT1 mRNA level (FIG. 3)” value (AKT1 mRNA [1]; L1-transfected, versus control oligos and delivery by Effectene or peptoid (NaeNmpeNmpe)3) was “most pronounced reduction”.
“6 (AGCGGCAGAAGTTGAGGTATGTTGA; antisense; sugars from the 5' end m7 d11 m7, 5' {5'-OMe-dT}, 3' {3'-3'N}, backbone and T or U not given here; 2'-OMe blocks are phosphodiester, DNA gap is phosphorothioate) [compound 6]” was tested, and the mRNA knockout (CK1E mRNA) was >80%.
With “1 (CCATAGTGAGGTTGCATCTGGTGCC; antisense; sugars from the 5' end m7 d11 m7, 5' {5'-OMe-dT}, 3' {3'-3'N}, backbone and T or U not given here; 2'-OMe blocks are phosphodiester, DNA gap is phosphorothioate) [compound 1]” the mRNA knockout (AKT1 mRNA [1]; AKT1, Lipitoid 1 for transfection, incubated 24 hours, approximate level) was >90%.
In the case of “CCCAGAGCCGATGGTCCGATCATGT (sugars from the 5' end m7 d11 m7, 5' {5'-OMe-dT}, 3' {3'-3'N}, backbone and T or U not given here; 2'-OMe blocks are phosphodiester, DNA gap is phosphorothioate) [SEQ ID NO: 3, chimeric antisense oligonucleotide directed against hCHK1]”, the “degradation of endogenous mRNA” value (CHK1 mRNA; hCHK1 antisense, transfected cells) is reported as “degradation of endogenous mRNA”, the chk1 kinase activity (chk1 kinase) is reported as “loss of chk1 kinase activity” and the “chk1 function (G2 cell cycle checkpoint control)” value [2] is reported as “loss of chk1 function”.
With “Chol-β-ala-(NaeNiaNia)3 [Cholesteroid 3]” the “proliferation and viability following oligonucleotide transfection (FIG. 5)” value (Lovo colon cancer cells) was “significant increase in proliferation and viability” and the “proliferation following oligonucleotide transfection (FIG. 7)” value [3] was “also observed”.
With “11 (GTGTTTGTTCAGGGTTCCATTTCGG; antisense; sugars from the 5' end m7 d11 m7, 5' {5'-OMe-dT}, 3' {3'-3'N}, backbone and T or U not given here; 2'-OMe blocks are phosphodiester, DNA gap is phosphorothioate) [compound 11]” the mRNA knockout (ILK mRNA) was >90%.
In the case of “3 (CCCAGAGCCGATGGTCCGATCATGT; antisense; sugars from the 5' end m7 d11 m7, 5' {5'-OMe-dT}, 3' {3'-3'N}, backbone and T or U not given here; 2'-OMe blocks are phosphodiester, DNA gap is phosphorothioate) [compound 3]”, the mRNA knockout (CHK1 mRNA; CHK1, HT1080 cells, Lipitoid 1 for transfection, incubated 24 hours, approximate level) is reported as >90%.
With “12 (GCATGTGGAAGGTAGGGAGGCAAGA; antisense; sugars from the 5' end m7 d11 m7, 5' {5'-OMe-dT}, 3' {3'-3'N}, backbone and T or U not given here; 2'-OMe blocks are phosphodiester, DNA gap is phosphorothioate) [compound 12]” the mRNA knockout (KRAS mRNA) was >85%.
In the case of “9 (TCTTCCTCACAGACCTTCGGGCAAG; antisense; sugars from the 5' end m7 d11 m7, 5' {5'-OMe-dT}, 3' {3'-3'N}, backbone and T or U not given here; 2'-OMe blocks are phosphodiester, DNA gap is phosphorothioate) [compound 9]”, the mRNA knockout (IGFR1 mRNA) is reported as > 80%.
With “7 (CCTGCCAGTATGAAGTTGGGAAGCG; antisense; sugars from the 5' end m7 d11 m7, 5' {5'-OMe-dT}, 3' {3'-3'N}, backbone and T or U not given here; 2'-OMe blocks are phosphodiester, DNA gap is phosphorothioate) [compound 7]” the mRNA knockout (E1AF mRNA) was >90%.
With DMPE(NaeNmpeNmpe)3 [Lipitoid 1] the “delivery effectiveness by charge ratio” value ([4]; 1:4 charge ratio of oligo to lipitoid versus 1:3) was “more effective than the 1:3 ratio”, the “nuclear delivery of the oligonucleotide” value [4, 6] was “higher degree of nuclear delivery” and the “transfection efficiency of FITC-labeled oligonucleotide” value [4, 6] was “significantly higher transfection efficiency”.
“Chol-β-ala-(NaeNmpeNmpe)3 [Cholesteroid 1]” was tested, and the “AKT1 mRNA knockout by carrier (FIG. 4)” value (AKT1 mRNA [5]) was “better AKT1 mRNA knockout than delivery by Lipitoid 1 or Lipitoid 2”.
With “Chol-Ahx-(NaeNmpeNmpe)3 [Cholesteroid 2]” the “proliferation and viability following oligonucleotide transfection (FIG. 5)” value (Lovo colon cancer cells) was “significant increase in proliferation and viability” and the “proliferation following oligonucleotide transfection (FIG. 7)” value [3] was “also observed”.
